# In US9861706B2, “GLP-1 receptor agonist peptide gastrin conjugates” (priority 2011, dated 2018):
# Where two headings read alike, the source gives them in different places. Square brackets hold non-standard residues; d marks the D form. Ends that are not written are not given here. AEEA = NCCOCCOCC(=O)O
# T1: human CCK-B receptor (human, UniProt P32239 1-447)
# T1 sequence (looked up): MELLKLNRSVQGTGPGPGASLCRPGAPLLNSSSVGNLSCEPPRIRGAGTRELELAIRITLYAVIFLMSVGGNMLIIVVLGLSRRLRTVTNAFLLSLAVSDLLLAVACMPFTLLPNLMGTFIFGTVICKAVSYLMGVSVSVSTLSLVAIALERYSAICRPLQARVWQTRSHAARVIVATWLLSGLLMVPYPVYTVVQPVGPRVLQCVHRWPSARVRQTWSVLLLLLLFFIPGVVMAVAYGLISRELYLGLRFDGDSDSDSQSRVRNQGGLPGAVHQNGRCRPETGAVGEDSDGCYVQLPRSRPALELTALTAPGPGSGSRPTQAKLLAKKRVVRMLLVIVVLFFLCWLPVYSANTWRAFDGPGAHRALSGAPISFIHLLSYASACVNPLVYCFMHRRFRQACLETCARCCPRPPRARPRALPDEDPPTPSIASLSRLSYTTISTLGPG
# B1: Compound 38 (peptide)
# peptide: HGEGTFTSDLSKQLEEEAVRLFIECLKNXXYGWLDF
# modifications: not fully specified; C(PEG5K) at position 25; 8Ado at positions 29 and 30; C-terminal amide (-NH2)
# What was measured:
# [1] = Pharmacokinetics in mice after single subcutaneous dose; format: in vivo, C57BI L/6J mice; details: C57BL/6J, mouse, sc
# Description: At each time point, samples from two mice were taken. […] Plasma samples were analyzed after solid phase extraction (SPE) by liquid chromatography mass spectrometry (LC-MS/MS).
# db/db mice = assay: Three weeks in vivo db/db mouse study
# Description: Treatment Db/db mice were stratified to various treatment groups according to HbA1c levels. Mice were treated once daily with subcutaneous (SC) injections for a total of 21 days. Injection volume was 5 ml/kg. During the study body weights (BW) were recorded daily and used to administer the body weight-corrected doses of peptide. OGTT On day 16, an oral glucose tolerance test was performed in the animals. Blood glucose was measured before glucose (at t=0, baseline) and after glucose administration up to 2 hrs. Termination At termination the blood glucose levels were measured, and blood samples were analyzed for HbA1c levels. Measurements Whole blood glucose concentration (mM) was determined by the immobilized glucose oxidase method (Elite Autoanalyser, Bayer, Denmark). Blood samples were analyzed for HbA1c using the Cobas c111 analyzer (Roche Diagnostics, Mannheim, Germany).
# human CCK-B receptor = molecular target: T1, human CCK-B receptor; assay: cell-based or functional assay
# human GLP-1 receptor = human GLP-1 receptor (human, UniProt P43220 24-463); assay: cell-based or functional assay
# [2] = SC 100 nmol/kg once daily, 21 days treatment
# human GLP-1 receptor, sequence (P43220 24-463): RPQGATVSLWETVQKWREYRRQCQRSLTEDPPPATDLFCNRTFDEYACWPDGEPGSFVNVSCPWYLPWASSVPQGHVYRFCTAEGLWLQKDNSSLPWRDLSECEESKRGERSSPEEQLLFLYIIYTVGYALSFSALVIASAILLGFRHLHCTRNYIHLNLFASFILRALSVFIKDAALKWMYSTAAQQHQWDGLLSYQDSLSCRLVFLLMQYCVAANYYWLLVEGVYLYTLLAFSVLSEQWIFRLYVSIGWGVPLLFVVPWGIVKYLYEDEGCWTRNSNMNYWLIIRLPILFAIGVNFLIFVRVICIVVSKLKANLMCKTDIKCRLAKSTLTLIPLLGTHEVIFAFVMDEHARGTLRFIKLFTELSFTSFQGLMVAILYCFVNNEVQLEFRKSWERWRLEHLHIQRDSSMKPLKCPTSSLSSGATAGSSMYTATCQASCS
Molecule,"half-life ([1]; in vivo, 100 nmol/kg)","EC50, p-ERK in HEK293 cells stably expressing human CCK-B R (human CCK-B receptor)","EC50, cAMP induction in HEK293 cells expressing human GLP-1 R (human GLP-1 receptor)",also measured
CCCCCCCCCCCCCCCC(=O)N[C@@H](CCC(=O)NCCCC[C@H](NC(=O)[C@H](CCC(=O)O)NC(=O)[C@@H](NC(=O)[C@H](Cc1ccccc1)NC(=O)[C@H](CC(C)C)NC(=O)[C@H](CCCNC(=N)N)NC(=O)[C@@H](NC(=O)[C@H](C)NC(=O)[C@H](CCC(=O)O)NC(=O)[C@H](CCC(=O)O)NC(=O)[C@H](CCC(=O)O)NC(=O)[C@H](CC(C)C)NC(=O)[C@H](Cc1ccc(O)cc1)NC(=O)[C@H](CCCCN)NC(=O)[C@H](CO)NC(=O)[C@H](CC(C)C)NC(=O)[C@H](CCC(=O)O)NC(=O)[C@H](CO)NC(=O)[C@@H](NC(=O)[C@H](Cc1ccccc1)NC(=O)[C@@H](NC(=O)CNC(=O)[C@H](CCC(=O)O)NC(=O)CNC(=O)[C@@H](N)Cc1c[nH]cn1)[C@@H](C)O)[C@@H](C)O)C(C)C)[C@@H](C)CC)C(=O)N[C@@H](CC(C)C)C(=O)N[C@@H](CCCCN)C(=O)NCCOCCOCC(=O)NCCOCCOCC(=O)N[C@@H](Cc1ccc(O)cc1)C(=O)NCC(=O)N[C@@H](Cc1c[nH]c2ccccc12)C(=O)N[C@@H](CC(C)C)C(=O)N[C@@H](CC(=O)O)C(=O)N[C@@H](Cc1ccccc1)C(N)=O)C(=O)O [Compound 7],,,,"half-life ([1]; s.c. administration of 100 nmol/kg in mice, plasma, read-out: T1/2 (converted)): 6.2 h"
CC[C@H](C)[C@H](NC(=O)[C@H](Cc1ccccc1)NC(=O)[C@H](CC(C)C)NC(=O)[C@H](CCCNC(=N)N)NC(=O)[C@@H](NC(=O)[C@H](C)NC(=O)[C@H](CCC(=O)O)NC(=O)[C@H](CCC(=O)O)NC(=O)[C@H](CCC(=O)O)NC(=O)[C@H](CC(C)C)NC(=O)[C@H](Cc1ccc(O)cc1)NC(=O)[C@H](CCCCN)NC(=O)[C@H](CO)NC(=O)[C@H](CC(C)C)NC(=O)[C@H](CCC(=O)O)NC(=O)[C@H](CO)NC(=O)[C@@H](NC(=O)[C@H](Cc1ccccc1)NC(=O)[C@@H](NC(=O)CNC(=O)[C@H](CCC(=O)O)NC(=O)CNC(=O)[C@@H](N)Cc1c[nH]cn1)[C@@H](C)O)[C@@H](C)O)C(C)C)C(=O)N[C@@H](CCC(=O)O)C(=O)N[C@@H](Cc1ccccc1)C(=O)N[C@@H](CC(C)C)C(=O)N[C@@H](CCCCN)C(=O)N[C@@H](CC(=O)O)C(=O)N[C@@H](Cc1ccc(O)cc1)C(=O)NCC(=O)N[C@@H](Cc1c[nH]c2ccccc12)C(=O)N[C@@H](CC(C)C)C(=O)N[C@@H](CC(=O)O)C(=O)N[C@@H](Cc1ccccc1)C(N)=O [Compound 12],5 h,,,
CC[C@H](C)[C@H](NC(=O)[C@H](Cc1ccccc1)NC(=O)[C@H](CC(C)C)NC(=O)[C@H](CCCNC(=N)N)NC(=O)[C@@H](NC(=O)[C@H](C)NC(=O)[C@H](CCC(=O)O)NC(=O)[C@H](CCC(=O)O)NC(=O)[C@H](CCC(=O)O)NC(=O)[C@H](CC(C)C)NC(=O)[C@H](Cc1ccc(O)cc1)NC(=O)[C@H](CCCCN)NC(=O)[C@H](CO)NC(=O)[C@H](CC(C)C)NC(=O)[C@H](CCC(=O)O)NC(=O)[C@H](CO)NC(=O)[C@@H](NC(=O)[C@H](Cc1ccccc1)NC(=O)[C@@H](NC(=O)CNC(=O)[C@H](CCC(=O)O)NC(=O)CNC(=O)[C@@H](N)Cc1c[nH]cn1)[C@@H](C)O)[C@@H](C)O)C(C)C)C(=O)N[C@@H](CCC(=O)O)C(=O)N[C@@H](Cc1ccccc1)C(=O)N[C@@H](CC(C)C)C(=O)N[C@@H](CCCCN)C(=O)N[C@@H](CC(=O)O)C(=O)NCCOCCOCC(=O)NCCOCCOCC(=O)N[C@@H](Cc1ccc(O)cc1)C(=O)NCC(=O)N[C@@H](Cc1c[nH]c2ccccc12)C(=O)N[C@@H](CC(C)C)C(=O)N[C@@H](CC(=O)O)C(=O)N[C@@H](Cc1ccccc1)C(N)=O [Compound 19],2.4 h,,,
CC[C@H](C)[C@H](NC(=O)[C@H](Cc1ccccc1)NC(=O)[C@H](CC(C)C)NC(=O)[C@H](CCCNC(=N)N)NC(=O)[C@@H](NC(=O)[C@H](C)NC(=O)[C@H](CCC(=O)O)NC(=O)[C@H](CCC(=O)O)NC(=O)[C@H](CCC(=O)O)NC(=O)[C@H](CC(C)C)NC(=O)[C@H](Cc1ccc(O)cc1)NC(=O)[C@H](CCCCN)NC(=O)[C@H](CO)NC(=O)[C@H](CC(C)C)NC(=O)[C@H](CCC(=O)O)NC(=O)[C@H](CO)NC(=O)[C@@H](NC(=O)[C@H](Cc1ccccc1)NC(=O)[C@@H](NC(=O)CNC(=O)[C@H](CCC(=O)O)NC(=O)CNC(=O)[C@@H](N)Cc1c[nH]cn1)[C@@H](C)O)[C@@H](C)O)C(C)C)C(=O)N[C@@H](CCC(=O)O)C(=O)N[C@@H](Cc1c[nH]c2ccccc12)C(=O)N[C@@H](CC(C)C)C(=O)N[C@@H](CCCCN)C(=O)N[C@@H](CC(=O)O)C(=O)N[C@@H](Cc1ccc(O)cc1)C(=O)NCC(=O)N[C@@H](Cc1c[nH]c2ccccc12)C(=O)N[C@@H](CC(C)C)C(=O)N[C@@H](CC(=O)O)C(=O)N[C@@H](Cc1ccccc1)C(N)=O [Compound 23],6.7 h,,,"body weight gain (in words) (db/db mice; 3 week course of the study): lowered the body weight gain; Fasted BG level (mM) (db/db mice; SC 100 nmol/kg once daily, 16 days treatment): ++ ((++) indicates fasted BG between 6 and 8 mM); Delta-BW (g) (db/db mice; [2]): ++ ((++) indicates delta BW between 4 and 6 g); Delta-HbA1c (%) (db/db mice; [2]): +++ ((+++) indicates delta-HbA1c level below 0%); OGTT, AUC (mM*min) (db/db mice; SC 100 nmol/kg once daily, after 16 days of treatment): ++ ((++) indicates OGTT AUC between 1000 and 2000M*min); plasma levels of HbA1c (in words) (db/db mice; after 3 weeks treatment): lowered the plasma levels of HbA1c; fasting blood glucose levels (in words) (db/db mice; after 16 days treatment): lowered the fasting blood glucose levels; area under the glucose concentration curve (AUC) following an oral glucose challenge (in words) (db/db mice; day 16): lowered the area under the glucose concentration curve (AUC)"
H-HGEGTFTSELSKYLEEEAVRLFIEWLKNYGWLDF-NH2 [Compound 22],,,,"half-life ([1]; in vivo, s.c. administration of 100 nmol/kg in mice, plasma, read-out: T1/2 (converted)): 8.2 h"
h[Leu15]Gastrin17 (from UniProt P01350 76-92) (peptide),,2.89 nM,,
B1,,61 nM,0.037 nM,
HGEGTFTSELSKYLEEEAVRLFIEWLKNYGWLDF-NH2 [Compound 22],,31 nM,0.085 nM,
HGEGTFTSELSKYLEEEAVRLFIEC(PEG20K)LK[AEEA][AEEA]YGWLDF-NH2 (not fully specified) [Compound 40],,133 nM,0.37 nM,
